Experimental data as given in the supplement of paper PMC12317010.
Structures can show the parent of a compound that is named as a salt.

Assay: collision cross section in nitrogen (drift tube, single-field); higher = larger gas-phase ion size
[1] = ion type: [M+H], ion source: APCI, ion mode: Positive
[2] = ion type: [M-H], ion source: ESI, ion mode: Negative
[3] = ion type: [M+H], ion source: ESI, ion mode: Positive
[4] = ion type: [M+Na], ion source: ESI, ion mode: Positive
[5] = ion type: [M+], ion source: APCI, ion mode: Positive
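Also: chemical standards at 10 µM analysed by drift tube IMS-QTOF MS in about 3.95 torr nitrogen, mean of duplicate injections differing ≤1%, mass error below 10 ppm.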

CC(=O)c1cccnc1 [3-Acetylpyridine]
collision cross section in nitrogen [1]: 123.6 Å²

Nc1cc(C(=O)O)ccc1Cl [3-Amino-4-chlorobenzoic acid]
collision cross section in nitrogen [2]: 135.4 Å²

Cc1c(Cl)c(=O)oc2cc(O)ccc12 [3-Chloro-7-hydroxy-4-methyl-2-benzopyrone]
collision cross section in nitrogen [3]: 138.4 Å²

Oc1ccc(-c2ccccc2)cc1Cl [3-Chloro[1,1′-biphenyl]-4-ol]
collision cross section in nitrogen [2]: 143.8 Å²

CCOc1cc(C=O)ccc1O [3-Ethoxy-4-hydroxybenzaldehyde]
collision cross section in nitrogen [2]: 133.6 Å²

CCc1cccc(O)c1 [3-Ethylphenol]
collision cross section in nitrogen [2]: 127.5 Å²

OCc1ncccc1O [3-Hydroxy-2-(hydroxymethyl)pyridine hydrochloride]
collision cross section in nitrogen [1]: 121.7 Å² | collision cross section in nitrogen [3]: 122.1 Å² | collision cross section in nitrogen [2]: 119.9 Å²

O=C(Nc1ccccc1)c1cc2ccccc2cc1O [3-Hydroxy-2-naphthanilide]
collision cross section in nitrogen [1]: 160.9 Å² | collision cross section in nitrogen [3]: 160.7 Å² | collision cross section in nitrogen [2]: 160.7 Å²

O=C(O)c1cc2ccccc2cc1O [3-Hydroxy-2-naphthoic acid]
collision cross section in nitrogen [2]: 135.6 Å²

COc1ccccc1NC(=O)c1cc2ccccc2cc1O [3-Hydroxy-2-naphthoic o-anisidide]
collision cross section in nitrogen [1]: 167.3 Å² | collision cross section in nitrogen [3]: 167.5 Å² | collision cross section in nitrogen [4]: 181.8 Å² | collision cross section in nitrogen [2]: 168.9 Å²

CCOc1ccc(NC(=O)CC(C)O)cc1 (stereo not drawn) [3-Hydroxy-4-butyrophenetidide]
collision cross section in nitrogen [1]: 155.5 Å² | collision cross section in nitrogen [3]: 155.6 Å² | collision cross section in nitrogen [4]: 169.5 Å²

O=C(Nc1cccc([N+](=O)[O-])c1)c1cc2ccccc2cc1O [3-Hydroxy-N-(3-nitrophenyl)naphthalene-2-carboxamide]
collision cross section in nitrogen [2]: 170.2 Å²

Oc1ccc2c(c1)-c1ccccc1C2 [3-Hydroxyfluorene]
collision cross section in nitrogen [2]: 142.4 Å²

Oc1cccc(I)c1 [3-Iodophenol]
collision cross section in nitrogen [2]: 122.5 Å²

CC(C)c1cccc(O)c1 [3-Isopropylphenol]
collision cross section in nitrogen [2]: 132.9 Å²

COc1cc(C)cc(O)c1 [3-Methoxy-5-methylphenol]
collision cross section in nitrogen [2]: 130.1 Å²

CC1=NN(c2ccc(C)cc2)C(=O)C1 [3-Methyl-1-p-tolyl-5-pyrazolone]
collision cross section in nitrogen [3]: 142.9 Å² | collision cross section in nitrogen [4]: 156.9 Å² | collision cross section in nitrogen [2]: 144.4 Å²

Cc1cc(N)n(-c2ccccc2)n1 [3-Methyl-1-phenyl-1H-pyrazol-5-amine]
collision cross section in nitrogen [1]: 136.3 Å² | collision cross section in nitrogen [3]: 136.5 Å² | collision cross section in nitrogen [2]: 136.1 Å²

CC1COc2ccccc2N1 (stereo not drawn) [3-Methyl-3,4-dihydro-2H-1,4-benzoxazine]
collision cross section in nitrogen [1]: 130.4 Å² | collision cross section in nitrogen [3]: 131.2 Å²

CC1=NNC(=O)C1 [3-Methyl-5-pyrazolone]
collision cross section in nitrogen [3]: 119.1 Å² | collision cross section in nitrogen [2]: 117.9 Å²

Cc1cccc(Nc2ccccc2)c1 [3-Methyl-N-phenylaniline]
collision cross section in nitrogen [1]: 143.2 Å² | collision cross section in nitrogen [3]: 143.6 Å² | collision cross section in nitrogen [5]: 139.3 Å²

Cc1c[nH]c2ccccc12 [3-Methylindole]
collision cross section in nitrogen [2]: 125.2 Å²

O=C(O)c1cccc([N+](=O)[O-])c1 [3-Nitrobenzoic acid]
collision cross section in nitrogen [2]: 131.2 Å²

CC(=O)CC(=O)Nc1ccc2[nH]c(=O)[nH]c2c1 [3-Oxo-N-(2-oxo-2,3-dihydro-1H-benzimidazol-5-yl)butanamide]
collision cross section in nitrogen [2]: 154.4 Å²

O=C(O)c1cccc(Oc2ccccc2)c1 [3-Phenoxybenzoic acid]
collision cross section in nitrogen [2]: 155.6 Å²

Oc1cccc(-c2ccccc2)c1 [3-Phenylphenol]
collision cross section in nitrogen [2]: 140 Å²

Nc1cccnc1 [3-Pyridinamine]
collision cross section in nitrogen [1]: 115 Å² | collision cross section in nitrogen [3]: 115.2 Å²

Oc1cccnc1 [3-Pyridinol]
collision cross section in nitrogen [3]: 117.3 Å² | collision cross section in nitrogen [2]: 114.6 Å²

CCCCCCCCCCCSCC(=O)O [3-Thiatetradecanoic acid]
collision cross section in nitrogen [2]: 162.7 Å²

CC(C)(C)c1cc(CCC(=O)NN)cc(C(C)(C)C)c1O [3-[3,5-DI(tert-butyl)-4-hydroxyphenyl]propanohydrazide]
collision cross section in nitrogen [4]: 179.3 Å² | collision cross section in nitrogen [2]: 174.5 Å²

CCN(CCC#N)c1ccccc1 [3-[Ethyl(phenyl)amino]propanenitrile]
collision cross section in nitrogen [1]: 138.5 Å² | collision cross section in nitrogen [3]: 139.3 Å²

CC(C)(C)c1cccc(O)c1 [3-tert-Butylphenol]
collision cross section in nitrogen [2]: 136.9 Å²

CN(C)CCCNCCC#N [3-{[3-(Dimethylamino)propyl]amino}propanenitrile]
collision cross section in nitrogen [1]: 130.8 Å² | collision cross section in nitrogen [3]: 131.9 Å²

CC(=O)Nc1ccc(C(=O)CCl)cc1 [4'-(Chloroacetyl)acetanilide]
collision cross section in nitrogen [2]: 144.9 Å²

COc1cc(NC(=O)CC(C)=O)c(OC)cc1Cl [4'-Chloro-2',5'-dimethoxyacetoacetanilide]
collision cross section in nitrogen [3]: 160.8 Å² | collision cross section in nitrogen [4]: 168.5 Å² | collision cross section in nitrogen [5]: 156.7 Å² | collision cross section in nitrogen [2]: 161.1 Å²

CC(=O)CC(=O)Nc1ccc(Cl)cc1 [4'-Chloroacetoacetanilide]
collision cross section in nitrogen [2]: 143.8 Å²

Nc1ccc(-c2ccc(F)cc2)cc1 [4'-Fluoro-4-aminodiphenyl]
collision cross section in nitrogen [3]: 156.4 Å² | collision cross section in nitrogen [5]: 136.9 Å²

CC(c1ccc(O)cc1)(c1ccc(O)cc1)c1ccc(O)cc1 [4,4',4''-Ethane-1,1,1-triyltriphenol]
collision cross section in nitrogen [2]: 184.3 Å²

CC(c1ccccc1)(c1ccc(O)cc1)c1ccc(O)cc1 [4,4'-(1-Phenylethylidene)bisphenol]
collision cross section in nitrogen [2]: 180 Å²

N#Cc1ccc(C(c2ccc(C#N)cc2)n2cncn2)cc1 [4,4'-(1H-1,2,4-Triazol-1-ylmethylene)dibenzonitrile]
collision cross section in nitrogen [2]: 166.5 Å²

CC(C)CC(C)(c1ccc(O)cc1)c1ccc(O)cc1 [4,4'-(4-Methylpentane-2,2-diyl)diphenol]
collision cross section in nitrogen [2]: 175.3 Å²

Oc1ccc(C2(c3ccc(O)cc3)c3ccccc3-c3ccccc32)cc1 [4,4'-(9H-Fluorene-9,9-diyl)diphenol]
collision cross section in nitrogen [2]: 194.8 Å²

C1CN(CCOCCN2CCOCC2)CCO1 [4,4'-(Oxydiethylene)bis(morpholine)]
collision cross section in nitrogen [1]: 151.8 Å² | collision cross section in nitrogen [3]: 152.2 Å² | collision cross section in nitrogen [4]: 156.9 Å²

Nc1ccc(Cc2ccc(N)cc2)cc1 [4,4'-Diaminobiphenyl methane]
collision cross section in nitrogen [1]: 163.3 Å² | collision cross section in nitrogen [3]: 163.1 Å²

CCCCCCCCc1ccc(Nc2ccc(CCCCCCCC)cc2)cc1 [4,4'-Dioctyldiphenylamine]
collision cross section in nitrogen [1]: 218.8 Å² | collision cross section in nitrogen [3]: 219.9 Å² | collision cross section in nitrogen [5]: 219.4 Å² | collision cross section in nitrogen [2]: 221 Å²

CC(C)(C)c1cc(Cc2cc(C(C)(C)C)c(O)c(C(C)(C)C)c2)cc(C(C)(C)C)c1O [4,4'-Methylenebis(2,6-di-t-butylphenol)]
collision cross section in nitrogen [2]: 221.2 Å²
